Laboratory results as given in patent US20230255939A1, “Antimicrobial Agent for Non-Human Animal” (ISHIHARA SANGYO KAISHA, LTD, priority 2020, published 2023).
In brackets after ≈: the same amount, converted by molar mass.

Key:
[1] = tested on: Malassezia pachydermatis (IFM56528); assay: Antifungal activity test, fungicidal concentration after 1 minute contact (Test Examples 10-1 and 10-2); type: cell-based; conditions: for half fungicidal concentration MFC50: M. pachydermatis IFM56528, colony formation inhibition rate of 50%; for 90% fungicidal concentration MFC90: M. pachydermatis IFM56528, colony formation inhibition rate of 90%; for MFC: Malassezia pachydermatis, 1 min, M. pachydermatis IFM56528, no colony growth, read-out: Minimum fungicidal concentration MFC100
Protocol: Test Example 10-1: Antifungal Activity Test
Test Compound: Compound No. 6
Test Microbial Strain: Malassezia Pachydermatis (IFM56528)
The Malassezia microbe (Malassezia pachydermatis) cultured for 5 to 7 days in a Sabouraud medium (1% peptone, 4% dextrin, 1.5% agar) was suspended in physiological saline, and a suspension thereof was prepared in such a way as to have an absorbance of 0.025 at 600 nm. Thereto, the test compound dissolved in DMSO was added in such a way as to provide a final concentration of 70, 65, 64, 60, 55, 45, 40, 35, 32, 20, 18, or 8 ppm, and after 1 minute, 10 µL of the suspension and 10 mL of physiological saline were placed in a syringe and stirred, and the syringe was connected to a 37 mm Quality Monitor (manufactured by Pall Corporation) followed by filtration and washing. The membrane filter was impregnated as it was with the Sabouraud medium and subjected to culturing at 32° C. for 72 hours, the presence or absence of colony growth was investigated, and the concentration at which there was no colony growth was determined as the minimum fungicidal concentration (MFC100). When there was colony growth, the number of colonies formed there (the number of colonies in the inventive plot) and the number of colonies in a solvent to which the test compound was not added (the number of colonies in the non-agent treated plot) were measured, the colony formation inhibition rate (%) was determined according to the following expression, and the concentration showing a colony formation inhibition rate of 90% was determined as the 90% fungicidal concentration (MFC90), and the concentration showing a colony formation inhibition rate of 50% was determined as half fungicidal concentration (MFC50).
Colony formation inhibition rate (%) = [(number of colonies in non-agent treated plot - number of colonies in inventive plot)/number of colonies in non-agent treated plot] × 100
Test Example 10-2: Antifungal Activity Test
Test Compound: Compound No. 1
The Malassezia microbe (Malassezia pachydermatis) cultured for 5 to 7 days in a Sabouraud medium (1% peptone, 4% dextrin, 1.5% agar) was suspended in physiological saline, and a suspension thereof was prepared in such a way as to have an absorbance of 0.025 at 600 nm. Thereto, the test compound dissolved in DMSO was added in such a way as to provide a final concentration of 500, 250, 200, 190, 180, 170, 160, 150, 140, 130, 125, 120, 110, 100, 90, 80, 70, or 64 ppm, and after 1 minute, 10 µL of the suspension and 10 mL of physiological saline were placed in a syringe and stirred, and the syringe was connected to a 37 mm Quality Monitor (manufactured by Pall Corporation) followed by filtration and washing. The membrane filter was impregnated as it was with the Sabouraud medium and subjected to culturing at 32° C. for 72 hours, the presence or absence of colony growth was investigated, and the concentration at which there was no colony growth was determined as the minimum fungicidal concentration (MFC100). When there was colony growth, the number of colonies formed there (the number of colonies in the inventive plot) and the number of colonies in a solvent to which the test compound was not added (the number of colonies in the non-agent treated plot) were measured, the colony formation inhibition rate (%) was determined according to the following expression, and the concentration showing a colony formation inhibition rate of 90% was determined as the 90% fungicidal concentration (MFC90), and the concentration showing a colony formation inhibition rate of 50% was determined as half fungicidal concentration (MFC50).

[2] = tested on: Malassezia pachydermatis (ATCC14522 strain); assay: Malassezia otitis externa effect test (dog) (Test Example 3); type: in vivo, dog (Beagle); parameters: Total score (redness, earwax, itching, rash) Immediately before treatment / Total score (redness, earwax, itching, rash) 7 Days after treatment: scale not given here; conditions: for Microbial count (cfu/ml) 7 Days after treatment: 500 ppm agent solution for 1 minute; for Microbial count (cfu/ml) Immediately before treatment: baseline before 500 ppm agent solution; for Total score (redness, earwax, itching, rash) 7 Days after treatment: 5 mL of 500 ppm agent solution for 1 minute; for Improvement rate (%) of microbial count / Improvement rate (%) of symptom total score: 500 ppm for 1 minute, 7 days after treatment; for Total score (redness, earwax, itching, rash) Immediately before treatment: baseline 7 days after inoculation, before 500 ppm agent solution
Protocol: Test Example 3: Malassezia Otitis Externa Effect Test (Dog) Test Variety: Beagle (19 to 20-Month-Old)
Test Microbial Strain: Malassezia Pachydermatis (ATCC14522 Strain)
A colony of the Malassezia microbe pre-cultured (7 days, 30° C.) on a Sabouraud agar medium was suspended in sterilized physiological saline (microbial concentration of 1.0 × 10^6 cells/mL), and 0.1 mL of the resulting suspension was inoculated into both ears of the test animal. 7 Days after the inoculation, both ears were filled with 5 mL of an agent solution (sterilized physiological saline solution supplemented with 5% DMSO) prepared to have a concentration of the test compound of 500 ppm, and after 1 minute, thoroughly washed with sterilized physiological saline solution.
At the same time, the number of the Malassezia microbe present inside the ears of the sample was also investigated by the following method.
The surface of the ear canal was scraped three times using a cotton swab to collect the microbe, and the collected microbe was suspended in 1 mL of PBS (containing 8 g of sodium chloride, 2.9 g of disodium hydrogen phosphate, 0.2 g of potassium chloride, and 0.2 g of potassium dihydrogen phosphate in 1000 mL) supplemented with 1% v/v of Tween80 (polyoxyethylene sorbitan monooleate: manufactured by Kanto Chemical Co., Ltd.) together with the cotton swab. The resulting suspension was serially diluted 10-fold with the PBS, and 0.1 mL thereof was applied to a CHROMagar Malassezia/Candida medium (trade name; peptone, special enzyme substrate mixture, chloramphenicol, olive oil, agar) and cultured at 30° C. for 4 days. After that, the colonies having a pink to purple color were counted, the microbial count score was calculated, and the improvement rate was determined.

Cc1ccc(-c2nc(C#N)[nH]c2Cl)cc1 [Compound No. 1, 5-Chloro-4-(4-methylphenyl)-1H-imidazole-2-carbonitrile]
half fungicidal concentration MFC50 [1]: 64 ppm
90% fungicidal concentration MFC90 [1]: 130 ppm
MFC [1]: 160 mg/L (≈ 735 µM)
Microbial count (cfu/ml) 7 Days after treatment ([2]; left ear canal swab): 30 cfu/ml
Microbial count (cfu/ml) Immediately before treatment ([2]; left ear canal swab): 900 cfu/ml
Total score (redness, earwax, itching, rash) 7 Days after treatment ([2]; left ear): 1
Improvement rate (%) of microbial count ([2]; left ear): 96.7%
Improvement rate (%) of symptom total score ([2]; left ear): 67%
Total score (redness, earwax, itching, rash) Immediately before treatment ([2]; left ear): 3
Microbial count (cfu/ml) 7 Days after treatment ([2]; right ear canal swab): 30 cfu/ml
Microbial count (cfu/ml) Immediately before treatment ([2]; right ear canal swab): 1,300 cfu/ml
Total score (redness, earwax, itching, rash) 7 Days after treatment ([2]; right ear): 1
Improvement rate (%) of microbial count ([2]; right ear): 97.7%
Improvement rate (%) of symptom total score ([2]; right ear): 67%
Total score (redness, earwax, itching, rash) Immediately before treatment ([2]; right ear): 3

Cc1ccc(-c2nc(C#N)[nH]c2Cl)cc1Cl [Compound No. 6, 5-chloro-4-(3-chloro-4-methylphenyl)-1H-imidazole-2-carbonitrile]
half fungicidal concentration MFC50 [1]: 8 ppm
90% fungicidal concentration MFC90 [1]: 20 ppm
MFC [1]: 40 mg/L (≈ 159 µM)
Microbial count (cfu/ml) 7 Days after treatment ([2]; left ear canal swab): 20 cfu/ml
Microbial count (cfu/ml) Immediately before treatment ([2]; left ear canal swab): 5,300 cfu/ml
Total score (redness, earwax, itching, rash) 7 Days after treatment ([2]; left ear): 0
Improvement rate (%) of microbial count ([2]; left ear): 99.6%
Improvement rate (%) of symptom total score ([2]; left ear): 100%
Total score (redness, earwax, itching, rash) Immediately before treatment ([2]; left ear): 3
Microbial count (cfu/ml) 7 Days after treatment ([2]; right ear canal swab): 20 cfu/ml
Microbial count (cfu/ml) Immediately before treatment ([2]; right ear canal swab): 2,800 cfu/ml
Total score (redness, earwax, itching, rash) 7 Days after treatment ([2]; right ear): 0
Improvement rate (%) of microbial count ([2]; right ear): 99.3%
Improvement rate (%) of symptom total score ([2]; right ear): 100%
Total score (redness, earwax, itching, rash) Immediately before treatment ([2]; right ear): 3
